Several values for one entry are separate records, joined by “and”; a condition that tells them apart may be missing. Equal entries are not always repeated.
How the values were obtained:
BiP NBD [1] = molecular target: T1, BiP NBD (Homo sapiens, UniProt P11021); assay: Single turn-over assay (anion exchange quantification of ATP/ADP); assay type: biochemical; design: His6 (N, cleaved yes); made in house; host or cells: E. coli BL21-(DE3)-Lemo, pET28a vector
Procedure: We next set out to benchmark these kinetic parameters to independently measured values. Out of the 11 free parameters of the functional cycle, 3 parameters can be commonly accessed with classical experiments (kcat, koff2 and koff5 ). We benchmarked kcat with standard single-turn over experiments[44],[46]. For these experiments, the NBD·ATP complex is initially formed by incubation of an excess of ATP with BiP NBD at 4 °C. At this temperature, it is generally assumed that the hydrolysis rate can be neglected. Unbound nucleotides were removed by gel filtration and the purified NBD·ATP complex was flash frozen. The complex was then incubated at 37 °C for variable time, after which the reaction was quenched by addition of HCl. This step unfolds the NBD, thus immediately stopping the reaction and releasing all educts and products into solution. From the resulting samples, the [ATP]/[ADP] ratio was determined by anion exchange chromatography.
The single turnover experiment starts from a batch of stoichiometrically assembled NBD^ATP complex. ATP hydrolysis and ATP dissociation occur on parallel kinetic pathways, according to Eqs. (1) and (2). At very low protein concentrations [NBD^ATP]≪KD1 , rebinding of ATP after dissociation, as well as the buildup of the products ADP and Pi, can be neglected and the observed ATP decay follows the analytical equation35 ATP/ATP0=koff1/kcat*+kcat/kcat*e^−kcat*t with36 kcat*=kcat+koff1
At proteins concentrations [NBD^ATP]≳KD1 , as it was used in our experiments, ATP rebinding after dissociation cannot be neglected, which is competitive with the product ADP that builds up over time. […]
The ATPase activity of BiP NBD was determined under single-turnover conditions as previously described with minor modifications of the protocol. The main modification was to replace the radioactivity-based detection by a label free anion-exchange based quantification. […] The relative ATP/ADP ratio was determined using an anion chromatography-based assay.

BiP NBD [2] = molecular target: T1, BiP NBD; assay: In-cyclo NMR in the presence of 3.3 mM calcium; assay type: biochemical; design: His6 (N, cleaved yes); made in house; host or cells: E. coli BL21-(DE3)-Lemo, pET28a vector

T1 sequence (P11021 19-406): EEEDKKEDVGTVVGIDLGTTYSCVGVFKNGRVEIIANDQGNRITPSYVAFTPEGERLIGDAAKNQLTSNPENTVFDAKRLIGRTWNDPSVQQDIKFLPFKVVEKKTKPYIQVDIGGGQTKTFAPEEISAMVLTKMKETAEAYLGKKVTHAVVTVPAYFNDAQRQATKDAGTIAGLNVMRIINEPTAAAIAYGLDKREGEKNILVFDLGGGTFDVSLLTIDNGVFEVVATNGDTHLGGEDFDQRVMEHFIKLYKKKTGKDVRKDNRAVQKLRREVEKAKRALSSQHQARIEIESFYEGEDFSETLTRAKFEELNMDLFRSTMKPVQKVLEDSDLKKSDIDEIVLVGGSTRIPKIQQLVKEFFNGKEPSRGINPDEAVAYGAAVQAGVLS

SMILES	kcat* (single turn-over) (BiP NBD [1]; 37 °C, monoexponential fit)	kcat single turn-over average (BiP NBD [1]; Supplementary Fig 11b)	kcat single turn-over (BiP NBD [1]; Supplementary Fig 11b, replicates [1]-[6])	molecular hydrolysis rate in-cyclo khydr (BiP NBD [2]; 3.3 mM calcium, 10 mM magnesium)	khydr (BiP NBD [2]; Fig 5a source data, 3.3 mM calcium: replicates [1]-[3] and average)	cycle timing (BiP NBD [2]; Fig 5d source data, 3.3 mM calcium: replicates [1]-[3] and average)
Nc1ncnc2c1ncn2[C@@H]1O[C@H](COP(=O)(O)OP(=O)(O)OP(=O)(O)O)[C@@H](O)[C@H]1O [ATP]	0.071 s⁻¹ and 0.071 ± 0.02 s⁻¹	0.071 s⁻¹	0.085 s⁻¹ and 0.070 s⁻¹ and 0.057 s⁻¹ and 0.075 s⁻¹ and 0.073 s⁻¹			
[Ca+2] [calcium]				1.43 ± 0.06 min⁻¹	1.484 min⁻¹ and 1.451 min⁻¹ and 1.372 min⁻¹	40.4 s and 41.4 s and 43.7 s

— publication PMC12126525, “Mechanism of ATP hydrolysis in the Hsp70 BiP nucleotide-binding domain” (Nature Communications, 2025)
